Assay results as given in US8729280B2, “Five crystal forms, methods of preparation, pharmaceutical compositions and applications of XLF-III-43” (Institute of Mataria Medica, Chinese Academy of Medical …, priority 2008, dated 2014).
Blank lines part the entries; values can stand above or below the compound they belong to.

Experiments:
[1] = Influences of different crystalline forms on blood drug levels in rats (pharmacokinetic study, HPLC of plasma); type: in vivo
Method: 1. Crystal Samples: crystalline form II and V of XLF-III-43, dispersant agent of crystalline form II (obtained by comminuting crystalline form II and V of XLF-III-43).
2. Methodology study of detecting blood drug level
(1) Experimental Conditions:
HPLC: waters 2690 chromatography system, 2487 UV detector, Milnicousamidem 32 chromatography management system. Column: 4.6×250 mm Spherisorb C18 5 μm; flow rate: 1.0 ml/min; column temperature: 25° C.; detection wavelength: 330 nm. After treated by solid phase extraction, plasma samples were directly injected and analyzed.
(4) Recovery experiment: extraction recoveries (greater than 75%) meet the requests that SFDA issued on methods of pharmacokinetic study.
(5) Sensitivity: minimum detectable amount was 2 ng/ml, the minimum limit of quantification was 5 ng/ml.

[2] = test system: acute renal function injury in mice induced by Cisplatin; assay: Effects of different crystalline forms of XLF-III-43 on acute renal function injury in mice induced by Cisplatin (serum BUN and Scr); type: in vivo, Male Kunming mice; conditions: for BUN / BUN reduction (%) / Scr / Scr reduction (%): dose 25.0 × 3 mg/kg
Method: Objective: To observe the effects of different crystal forms of XLF-III-43 on acute renal function injury in mice induced by Cisplatin
Reagents: crystalline form I, II and V of XLF-III-43, all were prepared into suspensions with 0.5% sodium carboxymethylcellulose. Positive control: Losartan potassium, ATIRA Hangzhou Merck Sharp & Dohme Pharmaceutics Company, lot number: S1241. Crude drug of Cisplatin (DDP): Supplied by Shandong Qilu Pharmaceutics Company.
Animal: Male Kunming mice weighing 16 to 22 g were purchased from Institute of Laboratory Animal Sciences, Chinese Academy of Medical Sciences (Type II, Certificate No: SCXK-Jing 2000-0006). All the mice were feeded in standard breeding boxes, 5 per box, kept these boxes dry and clean, ventilate and sterilize animal room at fixed time, lightening time: 8:00-20:00, room temperature: 20-26° C., humidity: 40-70%, forage: clean breeding forage, bought from Animal Center of Academy of Military Medical Sciences, Certificate No: SCXX-(army) 2002-001.
Serum biochemistry kit: Beijing Beihua Refined Chemical Limited-liability Company
Apparatus: WELLSCAN MK3 Scanner, Germent SIGMA3K 15 Centrifuge, TGL-16G Freezing Centrifuge, Shanghai Anting Scientific Instrument Factory, Votex, American Bohemia N.Y Company.
Animal grouping: According to body weights, male Kunming mice weighing 18 to 22 grams were randomly divided into […] groups: control group, Cisplatin group (model group), Losartan potassium group, groups of three crystal forms of XLF-III-43, n=8 for each group.
Modeling and administrating: XLF-III-43 were dissolved in 0.5% sodium carboxymethylcellulose, Losartan potassium and Cisplatin were dissolved in physiological saline. Since two days before giving Cisplatin by peritoneal injection, Losartan potassium group and groups of three crystal forms of XLF-III-43 were intraperitoneally administered respectively. Control animals received an equal volume of physiological saline.
Serum parameters detecting: Blood samples were collected from the orbital venous plexus at day 3, 5, and 7 after injecting Cisplatin. Serum BUN and Scr were detected by serum biochemistry kit.

[3] = one-time orally administered at 30 mg/kg, preliminary pharmacokinetic
[4] = 3 days after injecting Cisplatin
[5] = 5 days after injecting Cisplatin
[6] = 7 days after injecting Cisplatin

time within which it could be detected in plasma ([1]; one-time orally administered at 30 mg/kg): ≤ 36 h
detection in plasma at 48 h ([1]; one-time orally administered at 30 mg/kg, 48 h): could not be detected
maximum plasma concentration Cmax [1, 3]: 2 µg/mL
peak time (Tmax) [1, 3]: 30 min
Compound: 3-(3′-carboxy-4′-hydroxy-anilino-carbo-)-6-nitro-7-hydroxy-8-methyl-coumarin [XLF-III-43]

Compound: 3-(3′-carboxy-4′-hydroxy-anilino-carbo-)-6-nitro-7-hydroxy-8-methyl-coumarin [crystalline form V of XLF-III-43]
blood/plasma concentration ([1]; oral, FIG. 22, within a certain period of time): higher blood concentration than crystalline form II of XLF-III-43
dose-effect relationship of renal function protective effect ([2]; Cisplatin model): good dose-effect relationship
renal function protective effect (serum Scr and BUN) ([2]; Cisplatin model, compared among treated groups (crystalline form I, II, V, Losartan potassium)): best renal function protective effect

Compound: CCCCc1nc(Cl)c(CO)n1Cc1ccc(-c2ccccc2-c2nn[nH]n2)cc1 [Losartan]
BUN [2, 4]: 30.58 ± 4.19 mg/dL
BUN reduction (%) [2, 4]: −1.9%
Scr [2, 4]: 1.41 ± 1.00 mg/dL
Scr reduction (%) [2, 4]: 22.4%
BUN [2, 5]: 31.75 ± 9.32 mg/dL
BUN reduction (%) [2, 5]: 24.6%
Scr [2, 5]: 1.16 ± 0.48 mg/dL
Scr reduction (%) [2, 5]: 39.3%
BUN [2, 6]: 30.32 ± 2.89 mg/dL
BUN reduction (%) [2, 6]: 23.8%
Scr [2, 6]: 1.74 ± 0.31 mg/dL
Scr reduction (%) [2, 6]: 34.7%
